# Reference: patent US8143293B2, “Kinase inhibitors useful for the treatment of myleoprolific diseases and other proliferative diseases” (Deciphera Pharmaceuticals, LLC, priority 2007, dated 2012)
# Substitutions are numbered along the chain they refer to.
# Legend:
# [1] = molecular target: T1, Abl kinase (SEQ ID NO: 1) (Homo sapiens, UniProt P00519); assay: Abl kinase (SEQ ID NO:1) assay, pyruvate kinase/lactate dehydrogenase coupled; settings: 2 h preincubation, ATP 500 μM; read-out: Biochemical IC50, Abl Enzyme Assay
# T1 construct: purchased deCode Genetics
# T1 sequence (P00519 with tags, fused parts or gaps): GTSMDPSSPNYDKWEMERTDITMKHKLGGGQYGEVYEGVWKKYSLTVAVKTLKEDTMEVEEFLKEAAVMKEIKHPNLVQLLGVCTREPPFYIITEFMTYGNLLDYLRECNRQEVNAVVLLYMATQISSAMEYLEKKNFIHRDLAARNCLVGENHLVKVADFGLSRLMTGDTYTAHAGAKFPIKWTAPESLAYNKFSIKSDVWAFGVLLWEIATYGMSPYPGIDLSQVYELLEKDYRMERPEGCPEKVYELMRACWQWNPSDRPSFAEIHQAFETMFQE
# Experimental: Abl Kinase (SEQ ID NO:1) Assay
# Activity of Abl kinase (SEQ ID NO: 1) was determined by following the production of ADP from the kinase reaction through coupling with the pyruvate kinase/lactate dehydrogenase system (e.g., Schindler, et al. Science (2000) 289, 1938-1942). In this assay, the oxidation of NADH (thus the decrease at A340 nm) was continuously monitored spectrophometrically. The reaction mixture (100 μl) contained Abl kinase (1 nM. Abl from deCode Genetics), peptide substrate (EAIYAAPFAKKK, 0.2 mM), MgCl2 (10 mM), pyruvate kinase (4 units), lactate dehydrogenase (0.7 units), phosphoenol pyruvate (1 mM), and NADH (0.28 mM) in 90 mM Tris buffer containing 0.2% octyl-glucoside and 3.5% DMSO, pH 7.5. Test compounds were incubated with Abl (SEQ ID NO:1) and other reaction reagents at 30° C. for 2 h before ATP (500 μM) was added to start the reaction. The absorption at 340 nm was monitored continuously for 2 hours at 30° C. on Polarstar Optima plate reader (BMG). The reaction rate was calculated using the 1.0 to 2.0 h time frame. Percent inhibition was obtained by comparison of reaction rate with that of a control (i.e. with no test compound). IC50 values were calculated from a series of percent inhibition values determined at a range of inhibitor concentrations using software routines as implemented in the GraphPad Prism software package.
# [2] = molecular target: T2, C-Met kinase (SEQ ID NO:10) (Homo sapiens, UniProt P08581); assay: C-Met kinase (SEQ ID NO:10) assay, pyruvate kinase/lactate dehydrogenase coupled; settings: 0.5 h preincubation, ATP 100 μM; read-out: Biochemical IC50, c-Met Enzyme Assay
# T2 construct: 956-1390, from Invitrogen, catalogue #PV3143; His6 (N-terminal leader MSYYHHHHHH... with TEV and thrombin sites) (N); purchased Invitrogen PV3143
# Experimental: C-Met Kinase (SEQ ID NO:10) Assay
# Activity of C-Met kinase (SEQ ID NO:10) was determined by following the production of ADP from the kinase reaction through coupling with the pyruvate kinase/lactate dehydrogenase system (e.g., Schindler, et al. Science (2000) 289, 1938-1942). In this assay, the oxidation of NADH (thus the decrease at A340 nm) was continuously monitored spectrophometrically. The reaction mixture (100 μl) contained C-Met (c-Met residues; 956-1390, from Invitrogen, catalogue #PV3143, […]), polyE4Y (1 mg/ml), MgCl2 (10 mM), pyruvate kinase (4 units), lactate dehydrogenase (0.7 units), phosphoenol pyruvate (1 mM), and NADH (0.28 mM) in 90 mM Tris buffer containing 0.25 mM DTT, 0.2% octyl-glucoside and 1% DMSO, pH 7.5. Test compounds were incubated with C-Met (SEQ ID NO:10) and other reaction reagents at 22° C. for 0.5 h before ATP (100 μM) was added to start the reaction. The absorption at 340 nm was monitored continuously for 2 hours at 30° C. on Polarstar Optima plate reader (BMG). The reaction rate was calculated using the 1.0 to 2.0 h time frame. Percent inhibition was obtained by comparison of reaction rate with that of a control (i.e. with no test compound). IC50 values were calculated from a series of percent inhibition values determined at a range of inhibitor concentrations using software routines as implemented in the GraphPad Prism software package.
# [3] = molecular target: T3, BaF3 cells transfected with wild type p210 BCR-Abl (Homo sapiens, UniProt P00519); assay: Ba/F3 p210 whole cell proliferation assay; format: cell-based; settings: 72 hours, Cell Titer Blue; read-out: Whole Cell Antiproliferation IC50, Ba/F3 p210 whole cell proliferation assay
# T3 construct: fused on or other part: P11274 (Breakpoint cluster region protein)
# Experimental: (§1) BaF3 cells (parental or transfected with the following: wild type p210 BCR-Abl and T315I p210 BCR-Abl was obtained from Professor Richard Van Etten (New England Medical Center, Boston, Mass.). Briefly, cells were grown in RPMI 1640 supplemented with 10% characterized fetal bovine serum (HyClone, Logan, Utah) at 37 degrees Celsius, 5% CO2, 95% humidity. Cells were allowed to expand until reaching 80% saturation at which point they were subcultured or harvested for assay use.
# (§2) A serial dilution of test compound was dispensed into a 96 well black clear bottom plate (Corning, Corning, N.Y.). For each cell line, three thousand cells were added per well in complete growth medium. Plates were incubated for 72 hours at 37 degrees Celsius, 5% CO2, 95% humidity. At the end of the incubation period Cell Titer Blue (Promega, Madison, Wis.) was added to each well and an additional 4.5 hour incubation at 37 degrees Celsius, 5% CO2, 95% humidity was performed. Plates were then read on a BMG Fluostar Optima (BMG, Durham, N.C.) using an excitation of 544 nm and an emission of 612 nm. Data was analyzed using Prism software (Graphpad, San Diego, Calif.) to calculate IC50's.
# [4] = molecular target: T4, BaF3 cells transfected with T315I p210 BCR-Abl (Homo sapiens, UniProt P00519, T315I, cells depend on it); assay: Ba/F3 p210 T315I whole cell proliferation assay; format: cell-based; settings: 72 hours, Cell Titer Blue; read-out: Whole Cell Antiproliferation IC50, Ba/F3 p210 T315I whole cell proliferation assay
# T4 construct: fused on or other part: P11274 (Breakpoint cluster region protein)
# Experimental: as §1, §2
# [5] = molecular target: T5, T315I Abl kinase (SEQ ID NO:2) (Homo sapiens, UniProt P00519, T315I); assay: T315I Abl kinase (SEQ ID NO:2) assay, pyruvate kinase/lactate dehydrogenase coupled; settings: 1 h preincubation, ATP 500 μM; read-out: Biochemical IC50, Abl T315I Enzyme Assay
# T5 construct: purchased deCode Genetics
# T5 sequence (P00519 with tags, fused parts or gaps T315I): T1 sequence (P00519 with tags, fused parts or gaps) with T94I
# Experimental: Abl Kinase (SEQ ID NO:2) Assay
# Activity of T315I Abl kinase (SEQ ID NO:2) was determined by following the production of ADP from the kinase reaction through coupling with the pyruvate kinase/lactate dehydrogenase system (e.g., Schindler, et al. Science (2000) 289, 1938-1942). In this assay, the oxidation of NADH (thus the decrease at A340 nm) was continuously monitored spectrophometrically. The reaction mixture (100 μl) contained Abl kinase (4.4 nM, […] Abl from deCode Genetics), peptide substrate (EAIYAAPFAKKK, 0.2 mM), MgCl2 (10 mM), pyruvate kinase (4 units), lactate dehydrogenase (0.7 units), phosphoenol pyruvate (1 mM), and NADH (0.28 mM) in 90 mM Tris buffer containing 0.2% octyl-glucoside and 1% DMSO, pH 7.5. Test compounds were incubated with T315I Abl (SEQ ID NO:2) and other reaction reagents at 30° C. for 1 h before ATP (500 μM) was added to start the reaction. The absorption at 340 nm was monitored continuously for 2 hours at 30° C. on Polarstar Optima plate reader (BMG). The reaction rate was calculated using the 1.0 to 2.0 h time frame. Percent inhibition was obtained by comparison of reaction rate with that of a control (i.e. with no test compound). IC50 values were calculated from a series of percent inhibition values determined at a range of inhibitor concentrations using software routines as implemented in the GraphPad Prism software package.
# T2 sequence (P08581 with tags, fused parts or gaps): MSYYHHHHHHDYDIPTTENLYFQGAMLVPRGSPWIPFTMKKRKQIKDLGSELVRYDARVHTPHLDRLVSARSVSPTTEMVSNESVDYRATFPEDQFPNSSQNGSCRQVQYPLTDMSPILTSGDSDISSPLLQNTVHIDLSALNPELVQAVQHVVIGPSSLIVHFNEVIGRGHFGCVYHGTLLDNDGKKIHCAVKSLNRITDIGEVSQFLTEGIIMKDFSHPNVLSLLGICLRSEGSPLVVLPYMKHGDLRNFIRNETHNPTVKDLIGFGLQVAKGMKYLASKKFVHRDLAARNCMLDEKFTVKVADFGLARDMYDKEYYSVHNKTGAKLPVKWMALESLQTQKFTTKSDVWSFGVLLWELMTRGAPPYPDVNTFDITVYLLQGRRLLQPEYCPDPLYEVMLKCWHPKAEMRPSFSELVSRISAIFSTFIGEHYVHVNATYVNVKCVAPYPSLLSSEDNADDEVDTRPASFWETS
Compound,IC50 [1] [nM],IC50 [2] [nM],GI50 [3] [nM],GI50 [4] [nM],IC50 [5] [nM]
"CC(C)n1cc(NC(=O)Nc2ccc(Oc3ccnc(-c4cnn(C)c4)c3)cc2F)c(C(F)(F)F)n1 [Example 18, 1-(2-fluoro-4-(2-(1-methyl-1H-pyrazol-4-yl)pyridin-4-yloxy)phenyl)-3-(1-isopropyl-3-(trifluoromethyl)-1H-pyrazol-4-yl)urea]",< 100,< 10000,< 100,< 100,
"Cc1c(NC(=O)Nc2ccc(Oc3ccnc(-c4cnn(C)c4)c3)cc2F)cnn1C1CCCC1 [Example 23, 1-(1-cyclopentyl-5-methyl-1H-pyrazol-4-yl)-3-(2-fluoro-4-(2-(1-methyl-1H-pyrazol-4-yl)pyridin-4-yloxy)phenyl)urea]",< 100,,< 100,< 1000,
"Cn1cc(-c2cc(Oc3ccc(NC(=O)Nc4cnc(C(C)(C)C)o4)c(F)c3)ccn2)cn1 [Example 26, 1-(2-tert-butyloxazol-5-yl)-3-(2-fluoro-4-(2-(1-methyl-1H-pyrazol-4-yl)pyridin-4-yloxy)phenyl)urea]",< 100,,,,
"Cn1cc(-c2cc(Oc3ccc(NC(=O)Nc4nc5ccc(F)cc5s4)c(F)c3)ccn2)cn1 [Example 29, 1-(2-fluoro-4-(2-(1-methyl-1H-pyrazol-4-yl)pyridin-4-yloxy)phenyl)-3-(6-fluorobenzo[d]thiazol-2-yl)urea]",< 100,,< 1000,< 100000,
"Cc1c(C(C)(C)C)noc1NC(=O)Nc1ccc(Oc2ccnc(-c3cnn(C)c3)c2)cc1F [Example 31, 1-(3-tert-butyl-4-methylisoxazol-5-yl)-3-(2-fluoro-4-(2-(1-methyl-1H-pyrazol-4-yl)pyridin-4-yloxy)phenyl)urea]",< 100,,< 100,< 100,< 100
"CCc1cncc(NC(=O)Nc2ccc(Oc3ccnc(-c4cnn(C)c4)c3)cc2F)c1 [Example 32, 1-(5-ethylpyridin-3-yl)-3-(2-fluoro-4-(2-(1-methyl-1H-pyrazol-4-yl)pyridin-4-yloxy)phenyl)urea]",< 100,,< 100,< 100,< 100
"Cn1cc(-c2cc(Oc3ccc(NC(=O)Nc4cc(C5CC5)nn4C)c(F)c3)ccn2)cn1 [Example 33, 1-(3-cyclopropyl-1-methyl-1H-pyrazol-5-yl)-3-(2-fluoro-4-(2-(1-methyl-1H-pyrazol-4-yl)pyridin-4-yloxy)phenyl)urea]",< 1000,,< 1000,< 1000,< 1000
"CC(C)n1cnc(NC(=O)Nc2ccc(Oc3ccnc(-c4cnn(C)c4)c3)cc2F)c1 [Example 34, 1-(2-fluoro-4-(2-(1-methyl-1H-pyrazol-4-yl)pyridin-4-yloxy)phenyl)-3-(1-isopropyl-1H-imidazol-4-yl)urea]",< 100,,< 100,< 1000,< 100
"Cn1cc(-c2cc(Oc3ccc(NC(=O)NC4CC(=O)N(C(C)(C)C)C4)c(F)c3)ccn2)cn1 (stereo not shown) [Example 35, 1-(1-tert-butyl-5-oxopyrrolidin-3-yl)-3-(2-fluoro-4-(2-(1-methyl-1H-pyrazol-4-yl)pyridin-4-yloxy)phenyl)urea]",< 1000,,< 1000,< 100000,< 10000
"Cn1cc(-c2cc(Oc3ccc(NC(=O)NC4CCN(C(C)(C)C)C4)c(F)c3)ccn2)cn1 (stereo not shown) [Example 36, 1-(1-tert-butylpyrrolidin-3-yl)-3-(2-fluoro-4-(2-(1-methyl-1H-pyrazol-4-yl)pyridin-4-yloxy)phenyl)urea]",< 1000,,< 10000,< 100000,< 10000
"Cc1ncc(C(F)(F)F)cc1NC(=O)Nc1ccc(Oc2ccnc(-c3cnn(C)c3)c2)cc1F [Example 37, 1-(2-fluoro-4-(2-(1-methyl-1H-pyrazol-4-yl)pyridin-4-yloxy)phenyl)-3-(2-methyl-5-(trifluoromethyl)pyridin-3-yl)urea]",< 100,,< 100,< 100,< 100
"Cc1cc(NC(=O)Nc2ccc(Oc3ccnc(-c4cnn(C)c4)c3)cc2F)nn1C(C)(C)C [Example 38, 1-(1-tert-butyl-5-methyl-1H-pyrazol-3-yl)-3-(2-fluoro-4-(2-(1-methyl-1H-pyrazol-4-yl)pyridin-4-yloxy)phenyl)urea]",< 100,,< 1000,< 100000,< 1000
